In PubChem BioAssay AID2060886 (Molecular Pharmacology Branch, DTP, NCI, 2025):
Where “and” joins values, the source holds several entries; their conditions need not be identical. Equal entries are not always repeated.

Test system: 653999-131-R-J2-PDC complex spheroids, growth inhibition
Test: Anticancer human tumor 653999-131-R-J2-PDC patient-derived lung adenocarcinoma cell line growth inhibition [RAS]
Details: for viability, T/C: stronger effect = lower value
Summary of the method: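 Tumour cells grown as complex spheroids with HUVEC endothelial cells and mesenchymal stem cells, treated with RAS pathway inhibitor combinations. Each agent spans half-log steps from near clinical Cmax, or 10 microM where Cmax is unknown.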

[1] = curve of first compound, second compound 0.0316 µM
[2] = curve of first compound, second compound 0.1 µM
[3] = curve of first compound, second compound 0.316 µM
[4] = curve of first compound, second compound 1 µM
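Further: spheroids exposed to the agents for seven days before the readout.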

Q: Which IC50 [1] does the source give for `CCc1c2c(nc3ccc(O)cc13)-c1cc3c(c(=O)n1C2)COC(=O)[C@]3(O)CC` + C#Cc1c(F)ccc2cc(O)cc(-c3ncc4c(N5CC6CCC(C5)N6)nc(OCC56CCCN5CC(F)C6)nc4c3F)c12 here?
A: 0.0076 µM

Q: And the IC50 [2]?
A: 0.00798 µM

Q: What about the IC50 [3] of the same molecule?
A: 0.00167 µM

Q: And the IC50 [4]?
A: < 0.000949 µM

Q: And the IC50 (curve of first compound, second compound 3.16 µM)?
A: < 0.000949 µM

Q: What about the IC50 (curve of first compound, second compound 10 µM) of the same molecule?
A: < 0.000949 µM

Q: What about the viability, T/C (second compound 0.0316 µM, first compound 0.000949 µM) of the same molecule?
A: 85.8%

Q: What about the viability, T/C (second compound 0.0316 µM, first compound 0.003 µM) of the same molecule?
A: 68.4%

Q: And the viability, T/C (second compound 0.0316 µM, first compound 0.00949 µM)?
A: 43.6%

Q: What about the viability, T/C (second compound 0.0316 µM, first compound 0.03 µM) of the same molecule?
A: 30.7%

Q: And the viability, T/C (second compound 0.0316 µM, first compound 0.0949 µM)?
A: 24.1%

Q: What about the viability, T/C (second compound 0.0316 µM, first compound 0.3 µM) of the same molecule?
A: 14.2%

Q: And the viability, T/C (second compound 0.1 µM, first compound 0.000949 µM)?
A: 83.9%

Q: What about the viability, T/C (second compound 0.1 µM, first compound 0.003 µM) of the same molecule?
A: 58.7%

Q: What about the viability, T/C (second compound 0.1 µM, first compound 0.00949 µM) of the same molecule?
A: 48.4%

Q: What about the viability, T/C (second compound 0.1 µM, first compound 0.03 µM) of the same molecule?
A: 35.2%

Q: What about the viability, T/C (second compound 0.1 µM, first compound 0.0949 µM) of the same molecule?
A: 22.9%

Q: And the viability, T/C (second compound 0.1 µM, first compound 0.3 µM)?
A: 12.2%

Q: What about the viability, T/C (second compound 0.316 µM, first compound 0.000949 µM) of the same molecule?
A: 57.5%

Q: And the viability, T/C (second compound 0.316 µM, first compound 0.003 µM)?
A: 41.4%

Q: And the viability, T/C (second compound 0.316 µM, first compound 0.00949 µM)?
A: 32.2%

Q: And the viability, T/C (second compound 0.316 µM, first compound 0.03 µM)?
A: 23.5%

Q: And the viability, T/C (second compound 0.316 µM, first compound 0.0949 µM)?
A: 17.5%

Q: And the viability, T/C (second compound 0.316 µM, first compound 0.3 µM)?
A: 13.3%

Q: What about the viability, T/C (second compound 1 µM, first compound 0.000949 µM) of the same molecule?
A: 40.3%

Q: What about the viability, T/C (second compound 1 µM, first compound 0.003 µM) of the same molecule?
A: 26.4%

Q: What about the viability, T/C (second compound 1 µM, first compound 0.00949 µM) of the same molecule?
A: 21.4%

Q: What about the viability, T/C (second compound 1 µM, first compound 0.03 µM) of the same molecule?
A: 20.2%

Q: What about the viability, T/C (second compound 1 µM, first compound 0.0949 µM) of the same molecule?
A: 15.1%

Q: And the viability, T/C (second compound 1 µM, first compound 0.3 µM)?
A: 20.8%

Q: What about the viability, T/C (second compound 3.16 µM, first compound 0.000949 µM) of the same molecule?
A: 39.2%

Q: What about the viability, T/C (second compound 3.16 µM, first compound 0.003 µM) of the same molecule?
A: 21.2%

Q: What about the viability, T/C (second compound 3.16 µM, first compound 0.00949 µM) of the same molecule?
A: 16.6%

Q: And the viability, T/C (second compound 3.16 µM, first compound 0.03 µM)?
A: 11.6%

Q: What about the viability, T/C (second compound 3.16 µM, first compound 0.0949 µM) of the same molecule?
A: 9.96%

Q: What about the viability, T/C (second compound 3.16 µM, first compound 0.3 µM) of the same molecule?
A: 7.39%

Q: And the viability, T/C (second compound 10 µM, first compound 0.000949 µM)?
A: 26.8%

Q: And the viability, T/C (second compound 10 µM, first compound 0.003 µM)?
A: 17.8%

Q: What about the viability, T/C (second compound 10 µM, first compound 0.00949 µM) of the same molecule?
A: 12.5%

Q: What about the viability, T/C (second compound 10 µM, first compound 0.03 µM) of the same molecule?
A: 9.45%

Q: What about the viability, T/C (second compound 10 µM, first compound 0.0949 µM) of the same molecule?
A: 7.29%

Q: And the viability, T/C (second compound 10 µM, first compound 0.3 µM)?
A: 4.35%

Q: How did the IC50 (curve of first compound, second compound 0.00316 µM) turn out when `CC1(O)CCCC1n1c(=O)c(C(F)F)cc2cnc(NC3CCN(S(C)(=O)=O)CC3)nc21` (stereo unspecified) + C=CC(=O)N1CCN(c2nc(OCC3CCCN3C)nc3c(F)c(-c4nc(N)cc(C)c4C(F)(F)F)c(Cl)cc23)C(C)C1 was run?
A: 5.56 µM

Q: What about the IC50 (curve of first compound, second compound 0.01 µM) of the same molecule?
A: 5.34 µM

Q: What about the IC50 [1] of the same molecule?
A: 5.2 µM

Q: What about the IC50 [2] of the same molecule?
A: 5.59 µM

Q: What about the IC50 [3] of the same molecule?
A: 5.13 µM

Q: What about the IC50 [4] of the same molecule?
A: 6.26 µM

Q: And the viability, T/C (second compound 0.00316 µM, first compound 0.0316 µM)?
A: 74.3%

Q: What about the viability, T/C (second compound 0.00316 µM, first compound 0.1 µM) of the same molecule?
A: 63.4%

Q: What about the viability, T/C (second compound 0.00316 µM, first compound 0.316 µM) of the same molecule?
A: 57.5%

Q: And the viability, T/C (second compound 0.00316 µM, first compound 1 µM)?
A: 63.5%

Q: What about the viability, T/C (second compound 0.00316 µM, first compound 3.16 µM) of the same molecule?
A: 75.9%

Q: And the viability, T/C (second compound 0.00316 µM, first compound 10 µM)?
A: 32.5%

Q: And the viability, T/C (second compound 0.01 µM, first compound 0.0316 µM)?
A: 82.5%

Q: And the viability, T/C (second compound 0.01 µM, first compound 0.1 µM)?
A: 65.5%

Q: What about the viability, T/C (second compound 0.01 µM, first compound 0.316 µM) of the same molecule?
A: 56.6%

Q: What about the viability, T/C (second compound 0.01 µM, first compound 1 µM) of the same molecule?
A: 71.9%

Q: What about the viability, T/C (second compound 0.01 µM, first compound 3.16 µM) of the same molecule?
A: 68.8%

Q: And the viability, T/C (second compound 0.01 µM, first compound 10 µM)?
A: 27.5%

Q: And the viability, T/C (second compound 0.0316 µM, first compound 0.0316 µM)?
A: 77.6%

Q: What about the viability, T/C (second compound 0.0316 µM, first compound 0.1 µM) of the same molecule?
A: 57.2%

Q: And the viability, T/C (second compound 0.0316 µM, first compound 0.316 µM)?
A: 63.4%

Q: And the viability, T/C (second compound 0.0316 µM, first compound 1 µM)?
A: 63.2%

Q: What about the viability, T/C (second compound 0.0316 µM, first compound 3.16 µM) of the same molecule?
A: 68.5%

Q: What about the viability, T/C (second compound 0.0316 µM, first compound 10 µM) of the same molecule?
A: 29%

Q: What about the viability, T/C (second compound 0.1 µM, first compound 0.0316 µM) of the same molecule?
A: 78.4%

Q: What about the viability, T/C (second compound 0.1 µM, first compound 0.1 µM) of the same molecule?
A: 71.7%

Q: And the viability, T/C (second compound 0.1 µM, first compound 0.316 µM)?
A: 54.4%

Q: What about the viability, T/C (second compound 0.1 µM, first compound 1 µM) of the same molecule?
A: 64.7%

Q: What about the viability, T/C (second compound 0.1 µM, first compound 3.16 µM) of the same molecule?
A: 76.3%

Q: What about the viability, T/C (second compound 0.1 µM, first compound 10 µM) of the same molecule?
A: 30.7%

Q: And the viability, T/C (second compound 0.316 µM, first compound 0.0316 µM)?
A: 86.3%

Q: And the viability, T/C (second compound 0.316 µM, first compound 0.1 µM)?
A: 65.6%

Q: What about the viability, T/C (second compound 0.316 µM, first compound 0.316 µM) of the same molecule?
A: 67.2%

Q: And the viability, T/C (second compound 0.316 µM, first compound 1 µM)?
A: 69.5%

Q: What about the viability, T/C (second compound 0.316 µM, first compound 3.16 µM) of the same molecule?
A: 66.4%

Q: What about the viability, T/C (second compound 0.316 µM, first compound 10 µM) of the same molecule?
A: 27.8%

Q: And the viability, T/C (second compound 1 µM, first compound 0.0316 µM)?
A: 78.3%

Q: What about the viability, T/C (second compound 1 µM, first compound 0.1 µM) of the same molecule?
A: 55.9%

Q: And the viability, T/C (second compound 1 µM, first compound 0.316 µM)?
A: 71%

Q: And the viability, T/C (second compound 1 µM, first compound 1 µM)?
A: 64.2%

Q: What about the viability, T/C (second compound 1 µM, first compound 3.16 µM) of the same molecule?
A: 68.4%

Q: And the viability, T/C (second compound 1 µM, first compound 10 µM)?
A: 38.2%

Q: Which results are given for `Nc1ccn(C2OC(CO)C(O)C2(F)F)c(=O)n1` (stereo unspecified)?
A: viability, T/C (compound 0.00316 µM): 90.2% [middle of 4 runs]; viability, T/C (compound 0.01 µM): 76.4% [middle of 4 runs]; viability, T/C (compound 0.0316 µM): 62.9% [middle of 4 runs]; viability, T/C (compound 0.1 µM): 51.2% [middle of 4 runs]; viability, T/C (compound 0.316 µM): 43.1% [middle of 4 runs]; viability, T/C (compound 1 µM): 34.1% and 30.3% (2×) and 33.9%; IC50 (curve of compound): 99.5 nM [middle of 4 runs]
